From patent publication US20260022142A1, “MACROCYCLIC IMMUNOMODULATORS” (Bristol-Myers Squibb Company, priority 2022, published 2026)
Bridge positions count the residues as written; N and C are the ends. Square brackets hold non-standard residues; d marks the D form. Peptide text beside a SMILES is read from it. * marks the point of attachment. ξ: configuration not given here. Bip = N[C@@H](Cc1ccc(-c2ccccc2)cc1)C(=O)O; Phe(3-Me) = Cc1cccc(C[C@H](N)C(=O)O)c1; hArg = N=C(N)NCCCC[C@H](N)C(=O)O; Cha = N[C@@H](CC1CCCCC1)C(=O)O; Cit = NC(=O)NCCC[C@H](N)C(=O)O; Thr(3ξ) = CC(O)[C@H](N)C(=O)O; Carboxymethyl = O=C(O)C*; Orn = NCCC[C@H](N)C(=O)O; Aun = NCCCCCCCCCCC(=O)O; Dab = NCC[C@H](N)C(=O)O; AEEA = NCCOCCOCC(=O)O

Biological target: T1, PD-1/PD-L1 interaction (PE-labeled human PD-L1-Ig binding to Jurkat cell line over-expressing human PD-1) (Homo sapiens, UniProt Q15116)
T1 construct: expressed in transfected cells; host or cells: Jurkat
T1 sequence (Q15116 25-288): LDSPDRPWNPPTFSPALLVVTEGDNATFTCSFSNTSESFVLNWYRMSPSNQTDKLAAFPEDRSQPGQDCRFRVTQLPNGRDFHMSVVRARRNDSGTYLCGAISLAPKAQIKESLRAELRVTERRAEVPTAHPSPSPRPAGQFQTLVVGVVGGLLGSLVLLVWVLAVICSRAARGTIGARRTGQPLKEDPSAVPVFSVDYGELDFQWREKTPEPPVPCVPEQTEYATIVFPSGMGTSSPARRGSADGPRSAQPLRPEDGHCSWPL
Test: Jurkat-PD-1 Cell Binding High-Content Screening Assay (CBA)
Assay type: cell-based
Settings: Jurkat cell line over-expressing human PD-1; PE-labeled PD-L1-Ig 20 nM final; read-out: Jurkat hPD1-PDL1 IC50
Outline: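 Jurkat cells over-expressing human PD-1 (8×10^3 per well, DMEM/10% FCS) preincubated with compound 2 h at 37° C, then PE-labeled human PD-L1-Ig (20 nM final) added for 1 h. Cells fixed with paraformaldehyde, Hoechst-stained, and bound fluorescence quantified by high-content imaging.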

Structure (SMILES) | IC50 [nM]
Cc1cccc(C[C@@H]2NC(=O)[C@H](CC(=O)O)NC(=O)[C@H](Cc3c[nH]cn3)NC(=O)[C@H](CCCNC(=N)N)NC(=O)CSC[C@@H](C(=O)NCCOCCOCC(=O)N[C@@H](CCN)C(=O)NCCCCCCCCCCC(=O)O)NC(=O)[C@H](CO)NC(=O)[C@H](C(C)C)NC(=O)[C@H](CC3CCCCC3)NC(=O)[C@H](CCN)NC(=O)[C@@H](CC(C)C)NC(=O)[C@H](CCCN)NC(=O)[C@H](C(C)C)NC(=O)[C@H](Cc3ccc(-c4ccccc4)cc3)NC(=O)[C@H](C(C)C)NC2=O)c1 [Compound 3295] ({CH2CO}-RHD[Phe(3-Me)]V[Bip]V[Orn][dL][Dab][Cha]VSC[AEEA][Dab][Aun]-OH; thioether N-14) | 12.5
Cc1cccc(C[C@@H]2NC(=O)[C@H](CC(=O)O)NC(=O)[C@H](Cc3c[nH]cn3)NC(=O)[C@H](CCCNC(=N)N)NC(=O)CSC[C@@H](C(=O)N[C@@H](CCCCN)C(=O)NCCCCCCCCCCC(=O)O)NC(=O)[C@H](CCCN)NC(=O)[C@H](C(C)C)NC(=O)[C@H](CC3CCCCC3)NC(=O)[C@H](CCN)NC(=O)[C@@H](CC(C)C)NC(=O)[C@H](CCCN)NC(=O)[C@H](C(C)C)NC(=O)[C@H](Cc3ccc(-c4ccccc4)cc3)NC(=O)[C@H](C(C)C)NC2=O)c1 [Compound 3296] ({CH2CO}-RHD[Phe(3-Me)]V[Bip]V[Orn][dL][Dab][Cha]V[Orn]CK[Aun]-OH; thioether N-14) | 20.3
Cc1cccc(C[C@@H]2NC(=O)[C@H](CC(=O)O)NC(=O)[C@H](Cc3ccc(OCC(=O)O)cc3)NC(=O)[C@H](CCCNC(=N)N)NC(=O)CSC[C@@H](C(=O)N[C@@H](CCN)C(=O)NCCCCCCCCCCC(=O)O)NC(=O)[C@H](C(C)O)NC(=O)[C@H](C(C)C)NC(=O)[C@H](CC3CCCCC3)NC(=O)[C@H](CCN)NC(=O)[C@@H](CC(C)C)NC(=O)[C@H](CCCN)NC(=O)[C@H](CCCNC(N)=O)NC(=O)[C@H](Cc3ccc(-c4ccccc4)cc3)NC(=O)[C@H](C(C)C)NC2=O)c1 (stereo partly drawn) [Compound 3301] ({CH2CO}-RY(Carboxymethyl)D[Phe(3-Me)]V[Bip][Cit][Orn][dL][Dab][Cha]V[Thr(3ξ)]C[Dab][Aun]-OH; thioether N-14) | 17.4
Cc1cccc(C[C@@H]2NC(=O)[C@H](CC(=O)O)NC(=O)[C@H](Cc3ccc(OCC(=O)O)cc3)NC(=O)[C@H](CCCCNC(=N)N)NC(=O)CSC[C@@H](C(=O)N[C@@H](CCN)C(=O)NCCCCCCCCCCC(=O)O)NC(=O)[C@H](C(C)O)NC(=O)[C@H](C(C)C)NC(=O)[C@H](CC3CCCCC3)NC(=O)[C@H](CCN)NC(=O)[C@@H](CC(C)C)NC(=O)[C@H](CCCN)NC(=O)[C@H](CCCNC(N)=O)NC(=O)[C@H](Cc3ccc(-c4ccccc4)cc3)NC(=O)[C@H](C(C)C)NC2=O)c1 (stereo partly drawn) [Compound 3302] ({CH2CO}-[hArg]Y(Carboxymethyl)D[Phe(3-Me)]V[Bip][Cit][Orn][dL][Dab][Cha]V[Thr(3ξ)]C[Dab][Aun]-OH; thioether N-14) | 14.1
Cc1cccc(C[C@@H]2NC(=O)[C@H](CC(=O)O)NC(=O)[C@H](Cc3ccc(OCC(=O)O)cc3)NC(=O)[C@H](CCCNC(=N)N)NC(=O)CSC[C@@H](C(=O)N[C@@H](CCN)C(=O)NCCCCCCCCCCC(=O)O)NC(=O)[C@H](C(C)O)NC(=O)[C@H](C(C)C)NC(=O)[C@H](CC3CCCCC3)NC(=O)[C@H](CCN)NC(=O)[C@@H](CC(C)C)NC(=O)[C@H](CCCN)NC(=O)[C@H](CCCN)NC(=O)[C@H](Cc3ccc(-c4ccccc4)cc3)NC(=O)[C@H](C(C)C)NC2=O)c1 (stereo partly drawn) [Compound 3303] ({CH2CO}-RY(Carboxymethyl)D[Phe(3-Me)]V[Bip][Orn][Orn][dL][Dab][Cha]V[Thr(3ξ)]C[Dab][Aun]-OH; thioether N-14) | 15.1
Cc1cccc(C[C@@H]2NC(=O)[C@H](CC(=O)O)NC(=O)[C@H](Cc3ccc(OCC(=O)O)cc3)NC(=O)[C@H](CCCNC(=N)N)NC(=O)CSC[C@@H](C(=O)N[C@@H](CCN)C(=O)NCCCCCCCCCCC(=O)O)NC(=O)[C@H](C(C)O)NC(=O)[C@H](C(C)C)NC(=O)[C@H](CC3CCCCC3)NC(=O)[C@H](CCN)NC(=O)[C@@H](CC(C)C)NC(=O)[C@H](CCCNC(N)=O)NC(=O)[C@H](CCCN)NC(=O)[C@H](Cc3ccc(-c4ccccc4)cc3)NC(=O)[C@H](C(C)C)NC2=O)c1 (stereo partly drawn) [Compound 3304] ({CH2CO}-RY(Carboxymethyl)D[Phe(3-Me)]V[Bip][Orn][Cit][dL][Dab][Cha]V[Thr(3ξ)]C[Dab][Aun]-OH; thioether N-14) | 14.2
Cc1cccc(C[C@@H]2NC(=O)[C@H](CC(=O)O)NC(=O)[C@H](Cc3ccc(OCC(=O)O)cc3)NC(=O)[C@H](CCCNC(=N)N)NC(=O)CSC[C@@H](C(=O)N[C@@H](CCN)C(=O)NCCCCCCCCCCC(=O)O)NC(=O)[C@H](CCCNC(N)=O)NC(=O)[C@H](C(C)C)NC(=O)[C@H](CC3CCCCC3)NC(=O)[C@H](CCN)NC(=O)[C@@H](CC(C)C)NC(=O)[C@H](CCCN)NC(=O)[C@H](CCC(N)=O)NC(=O)[C@H](Cc3ccc(-c4ccccc4)cc3)NC(=O)[C@H](C(C)C)NC2=O)c1 [Compound 3305] ({CH2CO}-RY(Carboxymethyl)D[Phe(3-Me)]V[Bip]Q[Orn][dL][Dab][Cha]V[Cit]C[Dab][Aun]-OH; thioether N-14) | 6.5
Cc1cccc(C[C@@H]2NC(=O)[C@H](CC(=O)O)NC(=O)[C@H](Cc3ccc(OCC(=O)O)cc3)NC(=O)[C@H](CCCNC(=N)N)NC(=O)CSC[C@@H](C(=O)N[C@@H](CCN)C(=O)NCCCCCCCCCCC(=O)O)NC(=O)[C@H](CCCN)NC(=O)[C@H](C(C)C)NC(=O)[C@H](CC3CCCCC3)NC(=O)[C@H](CCN)NC(=O)[C@@H](CC(C)C)NC(=O)[C@H](CCCN)NC(=O)[C@H](CCCNC(N)=O)NC(=O)[C@H](Cc3ccc(-c4ccccc4)cc3)NC(=O)[C@H](C(C)C)NC2=O)c1 [Compound 3306] ({CH2CO}-RY(Carboxymethyl)D[Phe(3-Me)]V[Bip][Cit][Orn][dL][Dab][Cha]V[Orn]C[Dab][Aun]-OH; thioether N-14) | 7.9
Cc1cccc(C[C@@H]2NC(=O)[C@H](CC(=O)O)NC(=O)[C@H](Cc3ccc(OCC(=O)O)cc3)NC(=O)[C@H](CCCNC(=N)N)NC(=O)CSC[C@@H](C(=O)N[C@@H](CCN)C(=O)NCCCCCCCCCCC(=O)O)NC(=O)[C@H](C(C)O)NC(=O)[C@H](C(C)C)NC(=O)[C@H](CC3CCCCC3)NC(=O)[C@H](CCN)NC(=O)[C@@H](CC(C)C)NC(=O)[C@H](CCN)NC(=O)[C@H](CCCNC(N)=O)NC(=O)[C@H](Cc3ccc(-c4ccccc4)cc3)NC(=O)[C@H](C(C)C)NC2=O)c1 (stereo partly drawn) [Compound 3307] ({CH2CO}-RY(Carboxymethyl)D[Phe(3-Me)]V[Bip][Cit][Dab][dL][Dab][Cha]V[Thr(3ξ)]C[Dab][Aun]-OH; thioether N-14) | 7.4
Cc1cccc(C[C@@H]2NC(=O)[C@H](CC(=O)O)NC(=O)[C@H](Cc3ccc(OCC(=O)O)cc3)NC(=O)[C@H](CCCNC(=N)N)NC(=O)CSC[C@@H](C(=O)N[C@H](CC(N)=O)C(=O)NCCCCCCCCCCC(=O)O)NC(=O)[C@H](CCCN)NC(=O)[C@H](C(C)C)NC(=O)[C@H](CC3CCCCC3)NC(=O)[C@H](CCN)NC(=O)[C@@H](CC(C)C)NC(=O)[C@H](CCCN)NC(=O)[C@H](CCCNC(N)=O)NC(=O)[C@H](Cc3ccc(-c4ccccc4)cc3)NC(=O)[C@H](C(C)C)NC2=O)c1 [Compound 3311] ({CH2CO}-RY(Carboxymethyl)D[Phe(3-Me)]V[Bip][Cit][Orn][dL][Dab][Cha]V[Orn]C[dN][Aun]-OH; thioether N-14) | 4.4
